The target in one assay is human 5-HT1A receptor (Homo sapiens (Human), UniProt P08908). The assay is described as follows: Affinity for human 5-HT1A receptor ([3H]8-OH-DPAT binding, HEK-293 cell homogenates). The note with it: 0.3 nM [3H]8-OH-DPAT, human HEK-293 cell homogenates, 22° C., 60 minutes; Ki from IC50 by ChengPrusoff equation. As to the method:
Human HEK-293 cell homogenates (36 μg protein) were incubated at 22° C. for 60 minutes with 0.3 nM [^3H]8-0H-DPAT (Perkin-Elmer) in the absence or presence of the test compound in a buffer solution containing 50 mM Tris-HCl (pH 7.4), 10 mM MgSO4, 0.5 mM EDTA and 2 μg/ml aprotinine.
The non-specific binding value was determined by incubating the same mixture in the presence of 10 μM 8-OH-DPAT, which was used as the standard reference compound and tested in each experiment at several concentrations to obtain a competition curve.
Following the incubation, the samples were filtered rapidly under vacuum through glass fiber filter (GF/B, Packard) presoaked with 0.3% PEI and rinsed several times with ice-cold 50 mM Tris-HCl using a 96-sample cell harvester (Unifilter, Packard). The filters were dried and the retained radioactivity was measured in a scintillation counter (Topcount, Packard) using a scintillation cocktail (Microscint 0, Packard). The experimental results were expressed as a percent inhibition of the control radioligand specific binding.
Binding assay of [^3H] 8-OH-DPAT (0.3 nM) with 5-HT1A receptor in human HEK-293 cell was tested by scintillation proximity assay of membrane.

Assay [1] has as its target serotonin transporter in rat synaptosome (Rattus norvegicus (Rat), UniProt P31652). The assay is described as follows: Inhibitory effect on [3H]5-HT uptake in rat synaptosome. The note with it: rat brain synaptosomes, 0.1 μCi [3H]5-HT, 37° C., 15 minutes. The format is biochemical. As to the method:
The synaptosomes (150 μg) prepared from a rat brain were incubated at 37° C. for 15 minutes with 0.1 μCi [^3H]5-HT in the absence or presence of the test compound or the reference compound in a buffer solution containing 106.2 mM NaCl, 4.5 mM KCl, 2.25 mM MgSO4, 1.08 mM NaH2PO4, 22.5 mM NaHCO3, 9.9 mM glucose, 9 μM EGTA and 45 μM ascorbic acid (pH 7.4).
The basal control activity was determined by incubating the same mixture at 4° C. for 15 minutes in the presence of 10 μM imipramine to block the uptake of 5-HT, which was taken as the standard reference compound and tested in each experiment at several concentrations to obtain an inhibition curve.
Following the incubation, the samples were filtered rapidly under vacuum through glass fiber filters (GF/B, Packard) and rinsed twice with an ice-cold incubation buffer using a 96-sample cell harvester (Unifilter, Packard) to eliminate free [^3H]5-HT. The filters were dried and the retained radioactivity was measured in a scintillation counter (Topcount, Packard) using a scintillation cocktail (Microscint 0, Packard). The experimental results were expressed as a percent inhibition of the control uptake of [^3H]5-HT.
Inhibition of serotonin transporter in rat synaptosome was measured by the concentrations of [^3H]5-HT.

For 14 compounds, Ki and IC50 results are on record in patent US9714232B2, “Substituted piperazine compounds and methods of use thereof” (Sunshine Lake Pharma Co., Ltd., priority 2013, dated 2017).

Chain of serotonin transporter in rat synaptosome (P31652 whole entry): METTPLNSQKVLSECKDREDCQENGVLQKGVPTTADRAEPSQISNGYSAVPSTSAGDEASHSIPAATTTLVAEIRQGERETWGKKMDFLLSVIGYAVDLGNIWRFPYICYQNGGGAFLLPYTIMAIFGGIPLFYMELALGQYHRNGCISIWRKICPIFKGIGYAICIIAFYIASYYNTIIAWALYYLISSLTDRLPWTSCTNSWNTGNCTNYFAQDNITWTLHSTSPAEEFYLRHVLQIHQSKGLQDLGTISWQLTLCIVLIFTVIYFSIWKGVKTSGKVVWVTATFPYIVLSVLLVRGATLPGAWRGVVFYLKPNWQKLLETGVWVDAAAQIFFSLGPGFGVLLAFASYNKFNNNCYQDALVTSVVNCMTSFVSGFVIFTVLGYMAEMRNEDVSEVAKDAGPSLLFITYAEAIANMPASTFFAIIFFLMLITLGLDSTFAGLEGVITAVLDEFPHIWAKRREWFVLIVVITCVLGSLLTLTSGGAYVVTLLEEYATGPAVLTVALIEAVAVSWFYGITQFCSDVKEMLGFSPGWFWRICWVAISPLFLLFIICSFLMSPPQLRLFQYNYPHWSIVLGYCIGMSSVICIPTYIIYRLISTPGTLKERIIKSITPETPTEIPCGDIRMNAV
Chain of human 5-HT1A receptor (P08908 whole entry): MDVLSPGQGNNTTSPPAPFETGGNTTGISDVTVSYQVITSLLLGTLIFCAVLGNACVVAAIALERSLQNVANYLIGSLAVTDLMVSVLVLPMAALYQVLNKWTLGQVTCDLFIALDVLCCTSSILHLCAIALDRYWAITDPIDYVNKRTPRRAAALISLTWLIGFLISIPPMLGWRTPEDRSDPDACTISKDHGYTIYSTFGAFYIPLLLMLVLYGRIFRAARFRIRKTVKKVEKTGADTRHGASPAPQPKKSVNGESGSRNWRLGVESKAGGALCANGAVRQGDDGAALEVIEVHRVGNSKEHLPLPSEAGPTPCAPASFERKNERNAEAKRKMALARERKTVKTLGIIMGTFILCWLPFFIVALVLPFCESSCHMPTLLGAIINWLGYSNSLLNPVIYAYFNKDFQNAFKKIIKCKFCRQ

`COc1ccn(-c2ccc(N3CCN(CCCCCc4c[nH]c5ccc(C#N)cc45)CC3)cc2)c(=O)c1` [Example 24, 3-(5-(4-(4-(4-methoxy-2-oxopyridin-1(2H)-yl)phenyl)piperazin-1-yl)pentyl)-1H-indole-5-carbonitrile] yielded a Ki at human 5-HT1A receptor of 12 nM. The compound further gave an IC50 in assay [1] of 5.5 nM.
`N#Cc1ccc2[nH]cc(CCCCN3CCN(c4ccc(-n5cc(F)cc(F)c5=O)cc4)CC3)c2c1` [Example 25, 3-(4-(4-(4-(3,5-difluoro-2-oxopyridin-1(2H)-yl)phenyl)piperazin-1-yl)butyl)-1H-indole-5-carbonitrile] registered a Ki at human 5-HT1A receptor of 0.18 nM. Further, the midpoint of inhibition in assay [1], the IC50, lay at 1.4 nM.
In turn, `N#Cc1ccc2[nH]cc(CCCN3CCN(c4ccc(-n5cc(F)cc(F)c5=O)cc4)CC3)c2c1` [Example 26, 3-(3-(4-(4-(3,5-difluoro-2-oxopyridin-1(2H)-yl)phenyl)piperazin-1-yl)propyl)-1H-indole-5-carbonitrile] yielded a Ki at human 5-HT1A receptor of 0.31 nM. The same compound came in with an IC50 in assay [1] of 1.3 nM.
The compound `N#Cc1ccc2[nH]cc(CCN3CCN(c4ccc(-n5cc(F)cc(F)c5=O)cc4)CC3)c2c1` [Example 27, 3-(2-(4-(4-(3,5-difluoro-2-oxopyridin-1(2H)-yl)phenyl)piperazin-1-yl)ethyl)-1H-indole-5-carbonitrile] gave a Ki at human 5-HT1A receptor of 68 nM. Also, the IC50 in assay [1] was found to be 5.5 nM.
`N#Cc1ccc2[nH]cc(CCCCCN3CCN(c4ccc(-n5cc(F)cc(F)c5=O)cc4)CC3)c2c1` [Example 28, 3-(5-(4-(4-(3,5-difluoro-2-oxopyridin-1(2H)-yl)phenyl)piperazin-1-yl)pentyl)-1H-indole-5-carbonitrile] came in with an inhibition constant Ki on human 5-HT1A receptor of 1.5 nM. The IC50 in assay [1] is 2.2 nM.
On the same counts, the results for `N#Cc1ccc2[nH]cc(CCCN3CCN(c4ccc(-n5ccc6ccccc6c5=O)cc4)CC3)c2c1` [Example 30, 3-(3-(4-(4-(1-oxoisoquinolin-2(1H)-yl)phenyl)piperazin-1-yl)propyl)-1H-indole-5-carbonitrile] are 3.6 nM and 4.3 nM.
In the same order, the values of `N#Cc1ccc2[nH]cc(CCCCN3CCN(c4ccc(-n5ccc6ncccc6c5=O)cc4)CC3)c2c1` [Example 31, 3-(4-(4-(4-(5-oxo-1,6-naphthyridin-6(5H)-yl)phenyl)piperazin-1-yl)butyl)-1H-indole-5-carbonitrile] are 0.5 nM and 0.23 nM.
With `N#Cc1ccc2[nH]cc(CCCN3CCN(c4ccc(-n5ccc6ncccc6c5=O)cc4)CC3)c2c1` [Example 32, 3-(3-(4-(4-(5-oxo-1,6-naphthyridin-6(5H)-yl)phenyl)piperazin-1-yl)propyl)-1H-indole-5-carbonitrile], the affinity on human 5-HT1A receptor, expressed as Ki, was 1.7 nM. For the same compound, the IC50 in assay [1] worked out at 0.93 nM.
On human 5-HT1A receptor, `N#Cc1ccc2[nH]cc(CCCCN3CCN(c4ccc(-n5ccc6occc6c5=O)cc4)CC3)c2c1` [Example 33, 3-(4-(4-(4-(4-oxofuro[3,2-c]pyridin-5 (4H)-yl)phenyl)piperazin-1-yl)butyl)-1H-indole-5-carbonitrile] came in with a Ki of 0.14 nM. Further, the IC50 in assay [1] is 0.53 nM.
On the same counts, the results for `N#Cc1ccc2[nH]cc(CCCN3CCN(c4ccc(-n5ccc6occc6c5=O)cc4)CC3)c2c1` [Example 34, 3-(3-(4-(4-(4-oxofuro[3,2-c]pyridin-5 (4H)-yl)phenyl)piperazin-1-yl)propyl)-1H-indole-5-carbonitrile] are 0.1 nM and 4.2 nM.
In turn, `N#Cc1ccc2[nH]cc(CCCCN3CCN(c4ccc(-n5ccncc5=O)cc4)CC3)c2c1` [Example 35, 3-(4-(4-(4-(2-oxopyrazin-1(2H)-yl)phenyl)piperazin-1-yl)butyl)-1H-indole-5-carbonitrile] came in with a Ki on human 5-HT1A receptor of 0.8 nM. In assay [1], this compound gave a half-inhibitory concentration (IC50) of 0.8 nM.
`N#Cc1ccc2[nH]cc(CCCN3CCN(c4ccc(-n5ccncc5=O)cc4)CC3)c2c1` [Example 36, 3-(3-(4-(4-(2-oxopyrazin-1(2H)-yl)phenyl)piperazin-1-yl)propyl)-1H-indole-5-carbonitrile] showed a Ki on human 5-HT1A receptor of 3 nM. In assay [1], this compound displayed an IC50 of 1.8 nM.
As for `N#Cc1ccc2[nH]cc(CCCCN3CCN(c4ccc(N5CCCNC5=O)cc4)CC3)c2c1` [Example 37, 3-(4-(4-(4-(2-oxotetrahydropyrimidin-1(2H)-yl)phenyl)piperazin-1-yl)butyl)-1H-indole-5-carbonitrile], affinity at human 5-HT1A receptor was put at a Ki of 1.3 nM. This compound also showed an IC50 in assay [1] of 1.3 nM.
As to `N#Cc1ccc2[nH]cc(CCCN3CCN(c4ccc(N5CCCNC5=O)cc4)CC3)c2c1` [Example 38, 3-(3-(4-(4-(2-oxotetrahydropyrimidin-1(2H)-yl)phenyl)piperazin-1-yl)propyl)-1H-indole-5-carbonitrile], the Ki on human 5-HT1A receptor is 1.9 nM. The compound further displayed an IC50 in assay [1] of 1.4 nM.
